Where two headings read alike, the source gives them in different places.
How the values were obtained:
Format in all cases: cell-based
[1] = test system: T47D cells expressing mutant PI3Ka (H1047R); experiment: In vitro cell proliferation, T47D cells (CellTiter-Glo); conditions: inhibition of proliferation, read-out: Avg T-47D EC50
In short: (§1)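 T47D (PI3Kα H1047R; RPMI, 10% FBS, insulin 0.2 units/mL) or SKBR3 (WT PI3Kα; McCoys 5a, 10% FBS) cells seeded at 1,500 cells/well on 10-point compound dilutions, grown 72 h at 37 °C. CellTiter-Glo luminescence; inhibition normalised to 0.1% DMSO and 10 uM alpelisib, EC50 from four-parameter fit.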

[2] = test system: SKBR3 cells express WT PI3Ka; experiment: In vitro cell proliferation, SKBR3 cells (CellTiter-Glo); conditions: inhibition of proliferation
In short: as §1

[3] = test system: phosphorylation of AKT (pAKT) in T47D cells expressing mutant PI3Ka (H1047R); experiment: In vitro cell pAKT (Ser473) HTRF, T47D cells
In short: (§2)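 pAKT (Ser473) was quantified by HTRF in lysates from cells exposed 6 h at 37 °C to 10-point compound series, with T47D in insulin-supplemented RPMI/10% FBS and SKBR3 in McCoy's 5a/10% FBS. Controls: 0.1% DMSO (high) and 10 uM alpelisib (low). IC50 from sigmoidal curve fitting.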

[4] = test system: phosphorylation of AKT (pAKT) in SKBR3 cells express WT PI3Ka; experiment: In vitro cell pAKT (Ser473) HTRF, SKBR3 cells
In short: as §2

[5] = Homo sapiens, T47D, 6 h, read-out: Avg T-47D IC50, cellular pAKT, T47D cells, mutant PI3Ka (H1047R), 6 hours
[6] = Homo sapiens, SK-BR-3, cellular pAKT, 6 hours
[7] = Homo sapiens, T47D, 6 h, cellular pAKT, T47D cells, mutant PI3Ka (H1047R), 6 hours, read-out: Avg T-47D IC50
[8] = Homo sapiens, SK-BR-3, 6 h, cellular pAKT
[9] = cellular pAKT, T47D cells, mutant PI3Ka (H1047R), 6 hours, read-out: Avg T-47D IC50

| Structure (SMILES) | EC50 ([1]; Homo sapiens, T47D, 72 h) [µM] | EC50 ([2]; Homo sapiens, SK-BR-3, 72 h) [µM] | IC50 [3, 5] [µM] | IC50 [4, 6] [µM] | IC50 [3, 7] [µM] | IC50 [4, 8] [µM] | EC50 ([1]; 72 hours) [µM] | EC50 ([2]; 72 hours) [µM] | IC50 [3, 9] [µM] | IC50 ([4]; cellular pAKT, 6 hours) [µM] |
| --- | --- | --- | --- | --- | --- | --- | --- | --- | --- | --- |
| Cc1cc([C@@H](C)Nc2ccc(Cl)nc2C(=O)O)c2cc(N3CCN(c4ccc(F)cc4)CC3)n(C)c(=O)c2c1 [Example 24, (R)-6-chloro-3-((1-(3-(4-(4-fluorophenyl)piperazin-1-yl)-2,7-dimethyl-1-oxo-1,2-dihydroisoquinolin-5-yl)ethyl)amino)picolinic acid] | 0.001 to 0.5 | 2 to 15 | 0.001 to 0.5 | 2 to 15 | – | – | – | – | – | – |
| Cc1cc([C@@H](C)Nc2ccc(Cl)nc2C(=O)O)c2cc(N3CCN(Cc4ccc(F)cc4)CC3)n(C)c(=O)c2c1 [Example 25, (R)-6-chloro-3-((1-(3-(4-(4-fluorobenzyl)piperazin-1-yl)-2,7-dimethyl-1-oxo-1,2-dihydroisoquinolin-5-yl)ethyl)amino)picolinic acid] | 0.001 to 0.5 | 2 to 15 | – | – | 0.001 to 0.5 | 2 to 15 | – | – | – | – |
| Cc1cc([C@@H](C)Nc2ccc(Cl)nc2C(=O)O)c2cc(-c3ccc(-c4ccc(F)cc4)nc3)n(C)c(=O)c2c1 [Example 26, (R)-6-chloro-3-((1-(3-(6-(4-fluorophenyl)pyridin-3-yl)-2,7-dimethyl-1-oxo-1,2-dihydroisoquinolin-5-yl)ethyl)amino)picolinic acid] | 0.001 to 0.5 | 2 to 15 | – | – | 0.001 to 0.5 | 2 to 15 | – | – | – | – |
| Cc1cc([C@@H](C)Nc2ccc(Cl)nc2C(=O)O)c2cc(C3=CCN(CC(F)(F)F)CC3)n(C)c(=O)c2c1 [Example 27] | 0.001 to 0.5 | 2 to 15 | – | – | 0.001 to 0.5 | 2 to 15 | – | – | – | – |
| CCn1c(N2CCC(C)(C)CC2)cc2c(C(C)Nc3ccccc3C(=O)O)cc(C)cc2c1=O (centres unmarked) [Example 29, 2-((1-(3-(4,4-dimethylpiperidin-1-yl)-2-ethyl-7-methyl-1-oxo-1,2-dihydroisoquinolin-5-yl)ethyl)amino)benzoic acid] | 2 to 15 | > 15 | > 15 | > 15 | – | – | – | – | – | – |
| Cc1cc([C@@H](C)Nc2ccccc2C(=O)O)c2cc(SCc3ccccc3)n(C)c(=O)c2c1 [Example 34, (R)-2-((1-(3-(benzylthio)-2,7-dimethyl-1-oxo-1,2-dihydroisoquinolin-5-yl)ethyl)amino)benzoic acid] | 0.001 to 0.5 | > 15 | 0.001 to 0.5 | > 15 | – | – | – | – | – | – |
| C[C@@H](Nc1cccc(F)c1C(=O)O)c1cc(F)cc2c(=O)n(C)c(C34CC(C(F)(F)F)(C3)C4)cc12 [Example 39, (R)-2-fluoro-6-((1-(7-fluoro-2-methyl-1-oxo-3-(3-(trifluoromethyl)bicyclo[1.1.1]pentan-1-yl)-1,2-dihydroisoquinolin-5-yl)ethyl)amino)benzoic acid] | 0.001 to 0.5 | > 15 | – | – | 0.001 to 0.5 | > 15 | – | – | – | – |
| Cc1cc([C@@H](C)Nc2ccccc2C(=O)O)c2cc(OCC(C)C)n(C)c(=O)c2c1 [Example 40, (R)-2-((1-(3-isobutoxy-2,7-dimethyl-1-oxo-1,2-dihydroisoquinolin-5-yl)ethyl)amino)benzoic acid] | 0.5 to 2 | > 15 | – | – | 0.001 to 0.5 | > 15 | – | – | – | – |
| Cc1cc([C@@H](C)Nc2ccc(F)cc2C(=O)O)c2c(F)c(N3CCN(CC(F)(F)F)CC3)n(C)c(=O)c2c1 [Example 41, (R)-5-fluoro-2-((1-(4-fluoro-2,7-dimethyl-1-oxo-3-(4-(2,2,2-trifluoroethyl)piperazin-1-yl)-1,2-dihydroisoquinolin-5-yl)ethyl)amino)benzoic acid] | 0.001 to 0.5 | 2 to 15 | – | – | 0.001 to 0.5 | > 15 | – | – | – | – |
| C[C@@H](Nc1ccccc1C(=O)O)c1cc(F)cc2c(=O)n(C)c(-c3cnc(-c4cc(=O)n(C)cc4F)c(F)c3)cc12 [Example 42, (R)-2-((1-(3-(3,5′-difluoro-1′-methyl-2′-oxo-1′,2′-dihydro-[2,4′-bipyridin]-5-yl)-7-fluoro-2-methyl-1-oxo-1,2-dihydroisoquinolin-5-yl)ethyl)amino)benzoic acid] | 0.5 to 2 | > 15 | – | – | 0.5 to 2 | > 15 | – | – | – | – |
| Cc1cc([C@@H](C)Nc2ccccc2C(=O)O)c2cc(C3CC3)n(C)c(=O)c2c1 [Example 43, (R)-2-((1-(3-cyclopropyl-2,7-dimethyl-1-oxo-1,2-dihydroisoquinolin-5-yl)ethyl)amino)benzoic acid] | 0.001 to 0.5 | > 15 | – | – | 0.001 to 0.5 | > 15 | – | – | – | – |
| CCON1CC2CCC(C1)N2c1cc2c([C@@H](C)Nc3ccccc3C(=O)O)cc(F)cc2c(=O)n1C [Example 44, 2-(((1R)-1-(3-(3-ethoxy-3,8-diazabicyclo[3.2.1]octan-8-yl)-7-fluoro-2-methyl-1-oxo-1,2-dihydroisoquinolin-5-yl)ethyl)amino)benzoic acid] | 0.001 to 0.5 | 2 to 15 | – | – | 0.001 to 0.5 | 2 to 15 | – | – | – | – |
| C[C@@H](Nc1ccccc1C(=O)O)c1cc(F)cc2c(=O)n(C)c(-c3cnc(C4(C5CC5)CC4)nc3)cc12 [Example 47, (R)-2-((1-(3-(2-([1,1′-bi(cyclopropan)]-1-yl)pyrimidin-5-yl)-7-fluoro-2-methyl-1-oxo-1,2-dihydroisoquinolin-5-yl)ethyl)amino)benzoic acid] | 0.001 to 0.5 | > 15 | – | – | 0.001 to 0.5 | > 15 | – | – | – | – |
| C[C@@H](Nc1ccccc1C(=O)O)c1cc(F)cc2c(=O)n(C)c(-c3cnc(Oc4cnn(C(F)F)c4)c(F)c3)cc12 [Example 48, (R)-2-((1-(3-(6-((1-(difluoromethyl)-1H-pyrazol-4-yl)oxy)-5-fluoropyridin-3-yl)-7-fluoro-2-methyl-1-oxo-1,2-dihydroisoquinolin-5-yl)ethyl)amino)benzoic acid] | 0.5 to 2 | > 15 | – | – | 0.001 to 0.5 | > 15 | – | – | – | – |
| Cc1cc(C(C)Nc2ccccc2C(=O)O)c2cc(N3CC(Cl)C3)n(C)c(=O)c2c1 (centres unmarked) [Example 55] | 0.5 to 2 | > 15 | – | – | 0.001 to 0.5 | > 15 | – | – | – | – |
| Cc1cc(C(C)Nc2ccccc2C(=O)O)c2cc(N3CC4(C3)CC(F)(F)C4)n(C)c(=O)c2c1 (centres unmarked) [Example 56] | 2 to 15 | > 15 | – | – | 0.5 to 2 | > 15 | – | – | – | – |
| Cc1cc(C(C)Nc2ccccc2C(=O)O)c2cc(N3CC4(CC(C(F)(F)F)C4)C3)n(C)c(=O)c2c1 (centres unmarked) [Example 57] | 2 to 15 | > 15 | – | – | 0.001 to 0.5 | > 15 | – | – | – | – |
| Cc1cc(C(C)Nc2ccccc2C(=O)O)c2cc(N3CCn4c(C)nnc4C3)n(C)c(=O)c2c1 (centres unmarked) [Example 58] | > 15 | > 15 | – | – | > 15 | > 15 | – | – | – | – |
| Cc1cc(C(C)Nc2ccccc2C(=O)O)c2cc(N3CCN(C)CC3)n(C)c(=O)c2c1 (centres unmarked) [Example 59] | 0.5 to 2 | > 15 | – | – | 0.5 to 2 | > 15 | – | – | – | – |
| Cc1cc(C(C)Nc2ccccc2C(=O)O)c2cc(N3CCN(CC(F)(F)F)CC3)n(C)c(=O)c2c1 (centres unmarked) [Example 61] | – | – | – | – | – | – | 0.5 to 2 | > 15 | 0.001 to 0.5 | > 15 |
| Cc1cc(C(C)Nc2ccccc2C(=O)O)c2cc(N3CCC4(CCCC4)CC3)n(C)c(=O)c2c1 (centres unmarked) [Example 62] | 0.5 to 2 | > 15 | – | – | 0.5 to 2 | > 15 | – | – | – | – |
| Cc1cc(C(C)Nc2ccccc2C(=O)O)c2cc(N3CCC4(CCC4)CC3)n(C)c(=O)c2c1 (centres unmarked) [Example 63] | 2 to 15 | > 15 | – | – | 0.001 to 0.5 | > 15 | – | – | – | – |
| Cc1cc(C(C)Nc2ccccc2C(=O)O)c2cc(N3CC[C@H](c4ccccc4)C3)n(C)c(=O)c2c1 (some centres unmarked) [Example 64] | 0.5 to 2 | > 15 | – | – | 0.001 to 0.5 | > 15 | – | – | – | – |
| Cc1cc(C(C)Nc2ccccc2C(=O)O)c2cc(N3Cc4cccnc4C3)n(C)c(=O)c2c1 (centres unmarked) [Example 65] | 0.5 to 2 | > 15 | – | – | 0.001 to 0.5 | > 15 | – | – | – | – |
| Cc1cc(C(C)Nc2ccccc2C(=O)O)c2cc(N3Cc4ccncc4C3)n(C)c(=O)c2c1 (centres unmarked) [Example 66] | 0.001 to 0.5 | > 15 | – | – | 0.001 to 0.5 | > 15 | – | – | – | – |
| Cc1cc(C(C)Nc2ccccc2C(=O)O)c2cc(N3Cc4cccc(C(F)(F)F)c4C3)n(C)c(=O)c2c1 (centres unmarked) [Example 67] | – | – | – | – | – | – | 0.5 to 2 | > 15 | 0.001 to 0.5 | > 15 |
| Cc1cc(C(C)Nc2ccccc2C(=O)O)c2cc(-c3ccc(C)nc3)n(C)c(=O)c2c1 (centres unmarked) [Example 68] | 0.5 to 2 | > 15 | – | – | 0.001 to 0.5 | > 15 | – | – | – | – |
| Cc1cc(C(C)Nc2ccccc2C(=O)O)c2cc(N3C4CCCC3CC4)n(C)c(=O)c2c1 (centres unmarked) [Example 69] | 0.5 to 2 | > 15 | – | – | 0.001 to 0.5 | > 15 | – | – | – | – |
| Cc1cc(C(C)Nc2ccccc2C(=O)O)c2cc(N3C[C@@H]4[C@@H](C#N)[C@@H]4C3)n(C)c(=O)c2c1 (some centres unmarked) [Example 70] | 0.5 to 2 | > 15 | – | – | 0.5 to 2 | > 15 | – | – | – | – |
